Test results as given in patent publication US4226863A, “7-Methoxy cephalosporins” (Sumitomo Chemical Company, Limited, priority 1975, dated 1980).
In brackets after ≈: the same amount, converted by molar mass.

Legend:
Format in all cases: cell-based
[1] = tested on: Pseudomonas aeruginosa IID 5142; test: antimicrobial activity, minimum inhibitory concentration, Pseudomonas aeruginosa IID 5142; conditions: IID5142
Method: (§1) The antimicrobial activities of the compounds prepared in the previous Examples were determined in a usual manner and the minimum inhibitory concentrations (in terms of μg/ml) are set forth in the Table below.

Proteus vulgaris HX 19 = test: antimicrobial activity, minimum inhibitory concentration, Proteus vulgaris HX 19; conditions: HX19
Method: as §1

[2] = tested on: Enterobacter aerogenes No. 101; test: antimicrobial activity, minimum inhibitory concentration, Enterobacter aerogenes No. 101; conditions: Klebsiella aerogenes
Method: as §1

Escherichia coli NIHJ = test: antimicrobial activity, minimum inhibitory concentration, Escherichia coli NIHJ
Serratia No. 115 = test: antimicrobial activity, minimum inhibitory concentration, Serratia No. 115
Method: as §1

Structure (SMILES)	MIC [1]	MIC (Proteus vulgaris HX 19)	MIC [2]	MIC (Escherichia coli NIHJ)	MIC (Serratia No. 115)
CO[C@@]1(NC(=O)C(NC(=O)c2ccnnc2O)c2ccc(O)cc2)C(=O)N2C(C(=O)O)=C(CSc3n[nH]c(=S)s3)CS[C@@H]21 (some centres unmarked) [Example 14]	25 µg/mL (≈ 37.7 µM)	1.56 µg/mL (≈ 2.35 µM)	25 µg/mL (≈ 37.7 µM)	12.5 µg/mL (≈ 18.8 µM)	100 µg/mL (≈ 151 µM)
CO[C@@]1(NC(=O)C(NC(=O)c2ccnnc2O)c2ccc(O)cc2)C(=O)N2C(C(=O)O)=C(CSc3nnnn3C)CS[C@@H]21 (some centres unmarked) [Example 12]	25 µg/mL (≈ 39.7 µM)	0.78 µg/mL (≈ 1.24 µM)	25 µg/mL (≈ 39.7 µM)	12.5 µg/mL (≈ 19.9 µM)	100 µg/mL (≈ 159 µM)
COC1(NC(=O)C(NC(=O)c2cnccc2O)c2ccc(O)c(O)c2)C(=O)N2C(C(=O)O)=C(COC(N)=O)CSC21 (centres unmarked) [Example 44]	12.5 µg/mL (≈ 21.2 µM)	0.78 µg/mL (≈ 1.32 µM)	50 µg/mL (≈ 84.8 µM)	12.5 µg/mL (≈ 21.2 µM)	100 µg/mL (≈ 170 µM)
CNc1nnc(SCC2=C(C(=O)O)N3C(=O)[C@](NC(=O)C(NC(=O)c4cnc5ccc(OC)nc5c4O)c4ccc(O)c(Cl)c4)(OC)[C@H]3SC2)s1 (some centres unmarked) [Example 21]	3.13 µg/mL (≈ 4.04 µM)	0.39 µg/mL (≈ 0.503 µM)	6.25 µg/mL (≈ 8.06 µM)	1.56 µg/mL (≈ 2.01 µM)	12.5 µg/mL (≈ 16.1 µM)
COC1(NC(=O)C(NC(=O)c2cnc3ccncc3c2O)c2ccc(O)cc2)C(=O)N2C(C(=O)O)=C(CSc3nnnn3C)CSC21 (centres unmarked) [Example 38]	12.5 µg/mL (≈ 18.4 µM)	0.78 µg/mL (≈ 1.15 µM)	12.5 µg/mL (≈ 18.4 µM)	12.5 µg/mL (≈ 18.4 µM)	25 µg/mL (≈ 36.8 µM)
COC1(NC(=O)C(NC(=O)c2cnc3sccc3c2O)c2ccc(O)cc2)C(=O)N2C(C(=O)O)=C(CSc3nnnn3C)CSC21 (centres unmarked) [Example 29]	6.25 µg/mL (≈ 9.13 µM)	0.78 µg/mL (≈ 1.14 µM)	12.5 µg/mL (≈ 18.3 µM)	12.5 µg/mL (≈ 18.3 µM)	12.5 µg/mL (≈ 18.3 µM)
COC1(NC(=O)C(NC(=O)c2cc3ncccc3nc2O)c2ccc(O)cc2)C(=O)N2C(C(=O)O)=C(CSc3nnnn3C)CSC21 (centres unmarked) [Example 28]	3.13 µg/mL (≈ 4.6 µM)	0.39 µg/mL (≈ 0.574 µM)	6.25 µg/mL (≈ 9.2 µM)	1.56 µg/mL (≈ 2.3 µM)	6.25 µg/mL (≈ 9.2 µM)
CO[C@@]1(NC(=O)C(NC(=O)c2cnccc2O)c2ccccc2)C(=O)N2C(C(=O)O)=C(COC(C)=O)CS[C@@H]21 (some centres unmarked) [Example 8]	6.25 µg/mL (≈ 11.2 µM)	0.39 µg/mL (≈ 0.701 µM)	25 µg/mL (≈ 44.9 µM)	12.5 µg/mL (≈ 22.5 µM)	100 µg/mL (≈ 180 µM)
CCN(CC)c1ccc2ncc(C(=O)NC(C(=O)N[C@]3(OC)C(=O)N4C(C(=O)O)=C(CSc5cnn[nH]5)CS[C@@H]43)c3ccc(O)cc3)c(O)c2n1 (some centres unmarked) [Example 22]	3.13 µg/mL (≈ 4.25 µM)	0.39 µg/mL (≈ 0.53 µM)	6.25 µg/mL (≈ 8.49 µM)	3.13 µg/mL (≈ 4.25 µM)	25 µg/mL (≈ 34 µM)
COC1(NC(=O)C(NC(=O)c2cnccc2O)C2=CCC=CC2)C(=O)N2C(C(=O)O)=C(COC(N)=O)CSC21 (centres unmarked) [Example 33]	12.5 µg/mL (≈ 22.3 µM)	0.39 µg/mL (≈ 0.697 µM)	50 µg/mL (≈ 89.4 µM)	12.5 µg/mL (≈ 22.3 µM)	100 µg/mL (≈ 179 µM)
CO[C@@]1(NC(=O)C(NC(=O)c2cncnc2O)c2ccccc2)C(=O)N2C(C(=O)O)=C(COC(N)=O)CS[C@@H]21 (some centres unmarked) [Example 11]	12.5 µg/mL (≈ 22.4 µM)	0.78 µg/mL (≈ 1.4 µM)	50 µg/mL (≈ 89.5 µM)	12.5 µg/mL (≈ 22.4 µM)	100 µg/mL (≈ 179 µM)
COC1(NC(=O)C(NC(=O)c2cnc3cccnc3c2O)C2=CCCCC2)C(=O)N2C(C(=O)O)=C(COC(C)=O)CSC21 (centres unmarked) [Example 36]	3.13 µg/mL (≈ 5.12 µM)	0.39 µg/mL (≈ 0.638 µM)	12.5 µg/mL (≈ 20.4 µM)	3.13 µg/mL (≈ 5.12 µM)	50 µg/mL (≈ 81.7 µM)
CO[C@@]1(NC(=O)C(NC(=O)c2cccnc2O)c2ccc(O)cc2)C(=O)N2C(C(=O)O)=C(COC(N)=O)CS[C@@H]21 (some centres unmarked) [Example 23]	12.5 µg/mL (≈ 21.8 µM)	0.78 µg/mL (≈ 1.36 µM)	50 µg/mL (≈ 87.2 µM)	12.5 µg/mL (≈ 21.8 µM)	100 µg/mL (≈ 174 µM)
CO[C@@]1(NC(=O)C(NC(=O)c2cncnc2O)c2ccc(O)cc2)C(=O)N2C(C(=O)O)=C(CSc3nnnn3C)CS[C@@H]21 (some centres unmarked) [Example 10]	12.5 µg/mL (≈ 19.9 µM)	0.39 µg/mL (≈ 0.619 µM)	12.5 µg/mL (≈ 19.9 µM)	12.5 µg/mL (≈ 19.9 µM)	50 µg/mL (≈ 79.4 µM)
COC1(NC(=O)C(NC(=O)c2nnc(O)nc2O)c2ccc(O)cc2)C(=O)N2C(C(=O)O)=C(COC(N)=O)CSC21 (centres unmarked) [Example 52]	25 µg/mL (≈ 42.3 µM)	1.56 µg/mL (≈ 2.64 µM)	50 µg/mL (≈ 84.5 µM)	25 µg/mL (≈ 42.3 µM)	100 µg/mL (≈ 169 µM)
CO[C@@]1(NC(=O)[C@H](NC(=O)c2cnc3cccnc3c2O)c2ccc(O)cc2)C(=O)N2C(C(=O)O)=C(CSc3nnnn3C)CS[C@@H]21 [Example 2, 3-[(1-Methyltetrazol-5-yl)thiomethyl]-7α-methoxy-7β-[D-2-(4-hydroxy-1,5-naphthyridine-3-carbonamido)-2-(p-hydroxyphenyl)acetamido]-3-cephem-4-carboxylic Acid]	1.56 µg/mL (≈ 2.3 µM)	0.2 µg/mL (≈ 0.294 µM)	3.13 µg/mL (≈ 4.6 µM)	0.78 µg/mL (≈ 1.15 µM)	3.13 µg/mL (≈ 4.6 µM)
CO[C@@]1(NC(=O)C(NC(=O)c2cnccc2O)c2ccccc2)C(=O)N2C(C(=O)[O-])=C(C[n+]3ccccc3)CS[C@@H]21 (some centres unmarked) [Example 16]	6.25 µg/mL (≈ 10.9 µM)	1.56 µg/mL (≈ 2.71 µM)	25 µg/mL (≈ 43.4 µM)	12.5 µg/mL (≈ 21.7 µM)	50 µg/mL (≈ 86.9 µM)
COC1(NC(=O)C(NC(=O)c2nnc(O)nc2O)c2ccccc2)C(=O)N2C(C(=O)O)=C(COC(C)=O)CSC21 (centres unmarked) [Example 49]	25 µg/mL (≈ 43.5 µM)	1.56 µg/mL (≈ 2.72 µM)	50 µg/mL (≈ 87 µM)	25 µg/mL (≈ 43.5 µM)	100 µg/mL (≈ 174 µM)
CO[C@@]1(NC(=O)C(NC(=O)c2cnc3nc(N4CCCC4)cnc3c2O)c2ccc(O)cc2)C(=O)N2C(C(=O)O)=C(CSc3n[nH]c(=S)s3)CS[C@@H]21 (some centres unmarked) [Example 26]	6.25 µg/mL (≈ 7.97 µM)	0.39 µg/mL (≈ 0.498 µM)	12.5 µg/mL (≈ 15.9 µM)	6.25 µg/mL (≈ 7.97 µM)	12.5 µg/mL (≈ 15.9 µM)
COC1(NC(=O)C(NC(=O)c2cnccc2O)c2ccc(O)c(F)c2)C(=O)N2C(C(=O)O)=C(CSc3nnnn3C)CSC21 (centres unmarked) [Example 41]	6.25 µg/mL (≈ 9.67 µM)	0.39 µg/mL (≈ 0.603 µM)	12.5 µg/mL (≈ 19.3 µM)	12.5 µg/mL (≈ 19.3 µM)	50 µg/mL (≈ 77.3 µM)
COC1(NC(=O)C(NC(=O)c2cnccc2O)c2cccs2)C(=O)N2C(C(=O)O)=C(CSc3nnnn3C)CSC21 (centres unmarked) [Example 34]	6.25 µg/mL (≈ 10.1 µM)	0.39 µg/mL (≈ 0.63 µM)	12.5 µg/mL (≈ 20.2 µM)	12.5 µg/mL (≈ 20.2 µM)	50 µg/mL (≈ 80.8 µM)
COc1cnc2c(O)c(C(=O)NC(C(=O)N[C@]3(OC)C(=O)N4C(C(=O)O)=C(CSc5nnnn5C)CS[C@@H]43)c3ccc(O)cc3)cnc2n1 (some centres unmarked) [Example 17]	3.13 µg/mL (≈ 4.4 µM)	0.2 µg/mL (≈ 0.281 µM)	6.25 µg/mL (≈ 8.79 µM)	3.13 µg/mL (≈ 4.4 µM)	6.25 µg/mL (≈ 8.79 µM)
COC1(NC(=O)C(NC(=O)c2cnc3cccnc3c2O)c2cc(Cl)c(O)c(Cl)c2)C(=O)N2C(C(=O)O)=C(CSc3nnc(C)s3)CSC21 (centres unmarked) [Example 40]	3.13 µg/mL (≈ 4.09 µM)	0.78 µg/mL (≈ 1.02 µM)	6.25 µg/mL (≈ 8.17 µM)	6.25 µg/mL (≈ 8.17 µM)	12.5 µg/mL (≈ 16.3 µM)
COC1(NC(=O)C(NC(=O)c2cnc3cn[nH]c3c2O)c2ccc(O)cc2)C(=O)N2C(C(=O)O)=C(CSc3nnnn3C)CSC21 (centres unmarked) [Example 46]	6.25 µg/mL (≈ 9.35 µM)	0.39 µg/mL (≈ 0.583 µM)	6.25 µg/mL (≈ 9.35 µM)	1.56 µg/mL (≈ 2.33 µM)	6.25 µg/mL (≈ 9.35 µM)
COC1(NC(=O)C(NC(=O)c2cnc3cccnc3c2O)c2ccc(O)cc2)C(=O)N2C(C(=O)O)=C(CSc3ccc4nnnn4n3)CSC21 (centres unmarked) [Example 47]	6.25 µg/mL (≈ 8.72 µM)	0.39 µg/mL (≈ 0.544 µM)	6.25 µg/mL (≈ 8.72 µM)	3.13 µg/mL (≈ 4.37 µM)	12.5 µg/mL (≈ 17.4 µM)
COc1nc(OC)c2c(O)c(C(=O)NC(C(=O)NC3(OC)C(=O)N4C(C(=O)O)=C(CSc5nncs5)CSC43)c3ccc(O)cc3)cnc2n1 (centres unmarked) [Example 43]	12.5 µg/mL (≈ 16.8 µM)	1.56 µg/mL (≈ 2.1 µM)	25 µg/mL (≈ 33.7 µM)	12.5 µg/mL (≈ 16.8 µM)	50 µg/mL (≈ 67.3 µM)
COC1(NC(=O)C(NC(=O)c2nnc(O)nc2O)c2ccc(O)cc2)C(=O)N2C(C(=O)O)=C(CSc3nnnn3C)CSC21 (centres unmarked) [Example 50]	12.5 µg/mL (≈ 19.3 µM)	1.56 µg/mL (≈ 2.41 µM)	25 µg/mL (≈ 38.7 µM)	12.5 µg/mL (≈ 19.3 µM)	50 µg/mL (≈ 77.3 µM)
COC1(NC(=O)C(NC(=O)c2cnc3cccnc3c2O)c2cccs2)C(=O)N2C(C(=O)O)=C(COC(N)=O)CSC21 (centres unmarked) [Example 48]	3.13 µg/mL (≈ 5.09 µM)	0.39 µg/mL (≈ 0.635 µM)	6.25 µg/mL (≈ 10.2 µM)	3.13 µg/mL (≈ 5.09 µM)	25 µg/mL (≈ 40.7 µM)
